According to US20260028390A1, “ALPHA1-ANTITRYPSIN FOR USE IN THE TREATMENT OF DISEASES OR DISORDERS OF THE NERVOUS SYSTEM SUCH AS CHRONIC INFLAMMATORY DEMYELINATING POLYNEUROPATHY” (Ageronix SA, priority 2022, published 2026):
“And” between values parts separate entries of the source, which are not always exact repeats. Equal values may be shown once.

How the values were obtained:
[1] = test system: C3-PMP22 transgenic mice (CMT1A); test: Rotarod test, CMT1A mouse study (50 mg/kg twice daily); type: in vivo; conditions: for Rotarod latency, Mean/animal / Rotarod latency, set 1, individual animals / Rotarod latency, set 2, individual animals / Rotarod latency, set 3, individual animals: CMT1A + AAT; for Rotarod latency (Mean ± SEM): CMT1A mice
From the text: As a murine model of CMT1A we used C3-PMP22 transgenic mice (B6.Cg-Tg(PMP22)C3Fbas/J, The Jackson Laboratory) which express three copies of a wild-type human peripheral myelin protein 22 (PMP22) gene (Verhamme, Camiel, et al. Journal of Neuropathology & Experimental Neurology 70.5 (2011): 386-398). Mice were housed in macrolon cages with filter hoods, in a continuously air-filtered room, thereby avoiding contamination. During experiments, paired animals were caged at a constant temperature with a day/night cycle of 12/12 hours. Animals were fed (control tap water and nutrition) ad libitum. Animal protocol is approved by the Animal Studies Committee of Languedoc Roussillon. This protocol and the laboratory procedures comply with French legislation, which implements the European Directives (Reference Number: D3417223, APAFIS #23920-2020020320279696 v3). Animal health was followed on a daily basis to ensure that only animals in good health enter the testing procedures and follow up the study.
Animals were split in 3 groups (wild-type control (subcutaneous 0.9% NaCl), CMT1A-vehicle (subcutaneous 0.9% NaCl), CMT1A-human alpha-1 antitrypsin (subcutaneous, twice daily, 50 mg/kg per injection)) of 3 mice each (3 weeks old males of 18±2.5 g at the beginning of study) and all went through the following protocol after 7 days of acclimation on site.
On the first and last day of treatment, the neuromuscular performance of animals was tested with a rotarod test, grip test and sciatic nerve electrophysiology test. After the last treatment at 8 weeks, these tests were repeated, and animals were sacrificed and the left sciatic nerve was sampled for histological evaluation of the number and size of […].
The rotarod test measures neuromuscular coordination by assessing the capacity of the animals to stay in balance on a rotating cylinder. Similar rotarod latency was observed between groups at the baseline (6 weeks old).

[2] = test system: CMT1A mice B6.Cg-Tg(PMP22)C3Fbas/J; test: Rotarod latency to fall, CMT mice treated with AAT 180 mg/kg/day sc; type: in vivo, mouse
Method: CMT MOUSE MODEL: Non-humanized CMT1A mice B6.Cg-Tg(PMP22)C3Fbas/J (three copies of the PMP22 gene), three groups of 8 animals each.
DOSAGE: 180 mg/kg/day non-clinical grade AAT (Sigma)
ADMINISTRATION: Subcutaneous (SC) (bi-daily injection of 90 mg/kg)
(§1) Animals were received at 6 weeks of age and housed under controlled conditions for the duration of the study. The study comprised two groups of 8 transgenic mice (CMT mice) each and one group of 8 age matched wild type (WT) C57B16 mice, serving as positive control. Animals were assigned to the following subcutaneous treatments twice daily at 7:00 AM and 7:00 PM for 2 weeks, starting from 8 weeks and up to 10 weeks of age: • Wild-type (WT, no disease) mice receiving vehicle, 0.9% NaCl (positive control) • CMT1A mice receiving vehicle, 0.9% NaCl (negative control) • CMT1A mice receiving AAT at 90 mg/kg per injection (daily dose 180 mg/kg)
(§2) The efficacy parameters included: • neuromuscular performance (rotarod latency to fall and grip strength test), • sciatic nerve electrophysiology (CMAP amplitude and NCV) • cytokine (IL-6 and TNFα), as well as NfL analysis • sciatic nerve histology (number of axons and axonal diameter),
On the first day of treatment (Day 1), the neuromuscular and performance of animals was tested with a rotarod test and a grip strength test, as well as sciatic nerve electrophysiology test, which measured the compound muscle action potential (CMAP) and the nerve conduction velocity (NCV). After the last treatment on Day 15, these tests were repeated. Animals were then left untreated for 2 additional weeks to evaluate the duration of the treatment effect. Following the 2-week treatment-free period until 12 weeks of age (Day 30), the behavioural and electrophysiological tests were repeated.

[3] = test system: plasma IL-6; test: Plasma IL-6, CMT mice treated with AAT 180 mg/kg/day sc; type: in vivo, mouse
From the text: as §1, §2
As supportive information for the mode of action of AAT in CMT, plasma concentration of interleukin 6 (IL-6) and TNFα were measured at Day 1 (8 weeks), Day 15 (10 weeks) and Day 30 (12 weeks). At the same timepoints, plasma levels of the biomarker of nerve damage, NfL were determined.

[4] = test system: Microglial (HMC3) cells; test: IL6 and IL1B gene expression (qPCR) in IFNγ-induced microglia; type: cell-based, human; conditions: HMC3, IFNγ 10 ng/mL 24 h; AAT 25 μM or peptides 50 μM
Method: Microglial (HMC3) cells were seeded into 96-well plates at a density of approximately 2500 cells/well. Plasma derived AAT (Sigma, 25 μM) or peptide 8, peptide 9 or peptide 14 (Syngene, 50 μM) were added, and microglial activation was induced with interferon gamma (IFNγ) (10 ng/mL) for 24 h with no preincubation. Then, the RNA was extracted (RNAeasy mini kit, Qiagen) and the expression of the Interleukin-6 (IL6) and Interleukin-Ibeta (ILIB) genes were analysed. qPCR was performed with Syber green POWER UP master mix using 10 ng/well of cDNA in all gene expression results.

[5] = 8 weeks old (baseline, Day 1), CMT1A + AAT
[6] = 8 weeks old, CMT + hAAT 180 mg/kg/day SC, individual animal
[7] = 10 weeks old (Day 15, after 2 weeks AAT 90 mg/kg sc twice daily)
[8] = 12 weeks of age, after 2-week treatment-free period
[9] = 12 weeks old (Day 30, after 2-week treatment-free period)

alpha1-antitrypsin (AAT) protein
Rotarod latency, Mean/animal ([1]; 6 weeks old (baseline)): 84.36 s and 71.19 s and 72.91 s | Rotarod latency, set 1, individual animals ([1]; 6 weeks old (baseline)): 85.0 s and 51.4 s and 59.6 s | Rotarod latency, set 2, individual animals ([1]; 6 weeks old (baseline)): 102.6 s and 93.4 s and 92.1 s | Rotarod latency, set 3, individual animals ([1]; 6 weeks old (baseline)): 65.5 s and 68.8 s and 67.1 s | Rotarod latency, Mean/animal ([1]; 8 weeks old): 49.76 s and 64.65 s and 56.12 s | Rotarod latency, set 1, individual animals ([1]; 8 weeks old): 62.1 s and 83.2 s and 46.0 s | Rotarod latency, set 2, individual animals ([1]; 8 weeks old): 35.7 s and 39.5 s and 46.0 s | Rotarod latency, set 3, individual animals ([1]; 8 weeks old): 51.5 s and 71.3 s and 76.4 s | rotarod latency compared to the control group ([1]; CMT1A mice treated with AAT, 8 weeks old): improvement | Rotarod latency (Mean ± SEM) ([1]; 6 weeks old (baseline)): 76.15 ± 4.13 s | Rotarod latency (Mean ± SEM) ([1]; 8 weeks old, AAT 50 mg/kg sc twice daily): 56.84 ± 4.31 s | Rotarod latency (Mean ± SD) [2, 5]: 38.76 ± 4.90 s | Rotarod latency, group Mean ([2]; 8 weeks old, CMT + hAAT 180 mg/kg/day SC, 8 animals): 62.63 s | Rotarod latency, Mean/animal [2, 6]: 63.15 s and 51.81 s and 53.95 s and 52.25 s and 38.51 s and 92.09 s and 74.02 s and 75.23 s | Rotarod latency, set 1 [2, 6]: 55.48 s and 48.88 s and 60.00 s and 47.76 s and 30.45 s and 96.29 s and 74.06 s and 68.88 s | Rotarod latency, set 2 [2, 6]: 61.08 s and 61.14 s and 48.80 s and 53.19 s and 62.45 s and 79.58 s and 65.45 s and 74.87 s | Rotarod latency, set 3 [2, 6]: 72.89 s and 45.41 s and 53.05 s and 55.82 s and 22.62 s and 100.40 s and 82.56 s and 81.93 s | Rotarod latency (Mean ± SD) [2, 7]: 57.77 ± 19.19 s | rotarod latency to fall vs untreated group [2, 8]: non-significantly different | Rotarod latency (Mean ± SD) [2, 9]: 36.92 ± 1.66 s | Plasma IL-6 (Mean ± SD) [3, 5]: 133.48 ± 31.45 pg/mL | Plasma IL-6 (Mean ± SD) [3, 7]: 69.78 ± 11.76 pg/mL | positive effect on IL-6 plasma levels [3, 8]: remained significant | Plasma IL-6 (Mean ± SD) [3, 9]: 120.90 ± 6.47 pg/mL | plasma levels of IL-6 ([3]; CMT mice, AAT 90 mg/kg sc twice a day, P<0.01): reduced | IL1B expression reduced by [4]: 60-70% | IL6 expression reduced by [4]: 30-40%
